Laboratory results: publication PMC11209693 (ACS Omega, 2024)

What was measured:
pancreatic lipase [1] = biological target: T1, pancreatic lipase (Sus scrofa, UniProt P00591); test: in vitro pancreatic lipase inhibition assay; format: biochemical
T1 sequence (P00591 1-450): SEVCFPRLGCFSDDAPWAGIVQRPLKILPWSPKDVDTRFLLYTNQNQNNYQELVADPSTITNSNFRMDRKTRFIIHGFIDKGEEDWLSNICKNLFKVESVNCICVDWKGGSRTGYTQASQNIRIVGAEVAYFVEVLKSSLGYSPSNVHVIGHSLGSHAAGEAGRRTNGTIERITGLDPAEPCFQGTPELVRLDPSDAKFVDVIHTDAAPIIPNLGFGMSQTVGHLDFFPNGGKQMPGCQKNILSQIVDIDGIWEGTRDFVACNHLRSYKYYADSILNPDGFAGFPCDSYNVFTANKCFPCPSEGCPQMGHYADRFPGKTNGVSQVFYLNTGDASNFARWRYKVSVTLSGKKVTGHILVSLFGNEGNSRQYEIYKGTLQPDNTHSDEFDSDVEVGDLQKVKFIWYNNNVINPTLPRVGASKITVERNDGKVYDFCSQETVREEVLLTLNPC

pancreatic lipase [2] = biological target: T2, pancreatic lipase (Homo sapiens, UniProt P16233); test: microscale thermophoresis; format: binding
T2 sequence (P16233 17-465): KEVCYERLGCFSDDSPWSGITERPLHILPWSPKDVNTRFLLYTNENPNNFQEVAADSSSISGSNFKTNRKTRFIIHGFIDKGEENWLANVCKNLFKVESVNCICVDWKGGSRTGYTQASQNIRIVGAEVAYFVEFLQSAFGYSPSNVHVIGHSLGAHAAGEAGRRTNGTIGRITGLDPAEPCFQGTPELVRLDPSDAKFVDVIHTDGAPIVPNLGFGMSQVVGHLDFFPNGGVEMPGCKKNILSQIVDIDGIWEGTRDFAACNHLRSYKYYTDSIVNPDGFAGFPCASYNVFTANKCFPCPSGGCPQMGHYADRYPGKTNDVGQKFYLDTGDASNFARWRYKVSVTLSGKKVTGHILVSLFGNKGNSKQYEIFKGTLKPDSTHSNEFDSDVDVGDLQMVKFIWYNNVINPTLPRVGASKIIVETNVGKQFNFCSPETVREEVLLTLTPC

Row | Structure (SMILES) | IC50 (pancreatic lipase [1]) [µM] | Kd (pancreatic lipase [2]) [µM]
1 | O=C(CCc1ccc(O)cc1)CC(=O)CCc1ccc(O)cc1 [C4, 1,7-bis(4-hydroxyphenyl)heptane-3,5-dione] | 42.8 | 2.91
2 | COc1cc(CCC(=O)CC(=O)CCc2ccc(O)c(OC)c2)ccc1O [C6, 1,7-bis(4-hydroxy-3-methoxyphenyl)heptane-3,5-dione] | 98.6 | 18.2
3 | COc1cc(/C=C/C(=O)CC(=O)/C=C/c2ccc(O)c(OC)c2)ccc1O [A6, curcumin, reference compound] | – | 23.5
